# Measured values taken from ChEMBL document CHEMBL4507261, “Data for DCP probe A-192621” (2021).
# Key:
# [1] = tested on: Leucine-rich repeat serine/threonine-protein kinase 2 (Homo sapiens), Q5S007 [G2019S]; settings: Compound concentration 1000.0 nM
# [2] = molecular target: Dual serine/threonine and tyrosine protein kinase (Homo sapiens) (UniProt Q6XUX3); settings: Compound concentration 1000.0 nM
# [3] = molecular target: Serine/threonine-protein kinase WNK3 (Homo sapiens) (UniProt Q9BYP7); settings: Compound concentration 1000.0 nM
# [4] = tested on: Epidermal growth factor receptor (Homo sapiens), P00533 [L861Q]; settings: Compound concentration 1000.0 nM
# [5] = molecular target: Phosphatidylinositol 4-phosphate 5-kinase type-1 gamma (Homo sapiens) (UniProt O60331); settings: Compound concentration 1000.0 nM
# [6] = molecular target: Mitogen-activated protein kinase kinase kinase 9 (Homo sapiens) (UniProt P80192); settings: Compound concentration 1000.0 nM
# [7] = molecular target: MAP kinase-activated protein kinase 2 (Homo sapiens) (UniProt P49137); settings: Compound concentration 1000.0 nM
# [8] = molecular target: Mitogen-activated protein kinase kinase kinase kinase 1 (Homo sapiens) (UniProt Q92918); settings: Compound concentration 1000.0 nM
# [9] = molecular target: Vascular endothelial growth factor receptor 2 (Homo sapiens) (UniProt P35968); settings: Compound concentration 1000.0 nM
# [10] = molecular target: Calcium/calmodulin-dependent protein kinase type 1G (Homo sapiens) (UniProt Q96NX5); settings: Compound concentration 1000.0 nM
# [11] = molecular target: Tyrosine-protein kinase ITK/TSK (Homo sapiens) (UniProt Q08881); settings: Compound concentration 1000.0 nM
# [12] = molecular target: Calcium-dependent protein kinase 1 (Plasmodium falciparum) (UniProt P62344); settings: Compound concentration 1000.0 nM
# [13] = molecular target: Proto-oncogene tyrosine-protein kinase ROS (Homo sapiens) (UniProt P08922); settings: Compound concentration 1000.0 nM
# [14] = molecular target: Androgen receptor (Homo sapiens) (UniProt P10275); assay: AR (h) Eurofins-Cerep binding assay; set-up: ligand concentration 1 nM; settings: filed as agonist, Compound concentration 10.0 uM
# [15] = molecular target: Dual specificity protein kinase CLK3 (Homo sapiens) (UniProt P49761); settings: Compound concentration 1000.0 nM
# [16] = tested on: Receptor-type tyrosine-protein kinase FLT3 (Homo sapiens), P36888 [D835H]; settings: Compound concentration 1000.0 nM
# [17] = molecular target: Serine/threonine-protein kinase Nek2 (Homo sapiens) (UniProt P51955); settings: Compound concentration 1000.0 nM
# [18] = molecular target: Ephrin type-A receptor 2 (Homo sapiens) (UniProt P29317); settings: Compound concentration 1000.0 nM
# [19] = tested on: Phosphatidylinositol 4,5-bisphosphate 3-kinase catalytic subunit alpha isoform (Homo sapiens), P42336 [C420R]; settings: Compound concentration 1000.0 nM
# [20] = molecular target: Motilin receptor (Homo sapiens) (UniProt O43193); assay: motilin (h Eurofins-Cerep binding assay; set-up: ligand concentration 0.05 nM; settings: filed as agonist, Compound concentration 10.0 uM
# [21] = molecular target: Casein kinase I isoform alpha-like (Homo sapiens) (UniProt Q8N752); settings: Compound concentration 1000.0 nM
# [22] = molecular target: Non-receptor tyrosine-protein kinase TNK1 (Homo sapiens) (UniProt Q13470); settings: Compound concentration 1000.0 nM
# [23] = molecular target: Myosin light chain kinase (Homo sapiens) (UniProt Q32MK0); settings: Compound concentration 1000.0 nM
# [24] = molecular target: Tyrosine-protein kinase JAK1 (Homo sapiens) (UniProt P23458); settings: Compound concentration 1000.0 nM
# [25] = molecular target: cAMP-dependent protein kinase catalytic subunit PRKX (Homo sapiens) (UniProt P51817); settings: Compound concentration 1000.0 nM
# [26] = molecular target: Receptor tyrosine-protein kinase erbB-3 (Homo sapiens) (UniProt P21860); settings: Compound concentration 1000.0 nM
# [27] = molecular target: Phosphatidylinositol 5-phosphate 4-kinase type-2 beta (Homo sapiens) (UniProt P78356); settings: Compound concentration 1000.0 nM
# [28] = molecular target: Eukaryotic translation initiation factor 2-alpha kinase 1 (Homo sapiens) (UniProt Q9BQI3); settings: Compound concentration 1000.0 nM
# [29] = tested on: Receptor-type tyrosine-protein kinase FLT3 (Homo sapiens), P36888 [D835Y]; settings: Compound concentration 1000.0 nM
# [30] = molecular target: Serine/threonine-protein kinase DCLK1 (Homo sapiens) (UniProt O15075); settings: Compound concentration 1000.0 nM
# [31] = tested on: Tyrosine-protein kinase ABL1 (Homo sapiens), P00519 [E255K]; settings: Compound concentration 1000.0 nM
# [32] = molecular target: Mitogen-activated protein kinase kinase kinase kinase 4 (Homo sapiens) (UniProt O95819); settings: Compound concentration 1000.0 nM
# [33] = molecular target: Serine/threonine-protein kinase D2 (Homo sapiens) (UniProt Q9BZL6); settings: Compound concentration 1000.0 nM
# [34] = molecular target: GABA-A receptor; anion channel (Rattus norvegicus) (UniProt O09028+P15431+P18506+P18508+P19969+P20236+P23574+P23576+P28471+P28473+P30191+P62813+P63079+P63138+Q91ZM7+Q9ES14); assay: BZD (central) Eurofins-Cerep binding assay; assay type: protein-complex assay; set-up: ligand concentration 0.4 nM; settings: filed as agonist, Compound concentration 10.0 uM
# [35] = molecular target: Adenosine receptor A3 (Homo sapiens) (UniProt P0DMS8); assay: A3 (h) Eurofins-Cerep binding assay; set-up: ligand concentration 0.15 nM; settings: filed as agonist, Compound concentration 10.0 uM
# [36] = tested on: Epidermal growth factor receptor (Homo sapiens), P00533 [UNDEFINED MUTATION]; settings: Compound concentration 1000.0 nM
# [37] = molecular target: Ribosomal protein S6 kinase alpha-4 (Homo sapiens) (UniProt O75676); settings: Compound concentration 1000.0 nM
# [38] = molecular target: Sigma non-opioid intracellular receptor 1 (Homo sapiens) (UniProt Q99720); assay: sigma (non-selective) (h) Eurofins-Cerep binding assay; set-up: ligand concentration 10 nM; settings: filed as agonist, Compound concentration 10.0 uM
# [39] = molecular target: Mitogen-activated protein kinase kinase kinase kinase 3 (Homo sapiens) (UniProt Q8IVH8); settings: Compound concentration 1000.0 nM
# [40] = molecular target: Cyclin-dependent kinase 11B (Homo sapiens) (UniProt P21127); settings: Compound concentration 1000.0 nM
# [41] = molecular target: Ephrin type-A receptor 4 (Homo sapiens) (UniProt P54764); settings: Compound concentration 1000.0 nM
# [42] = tested on: Epidermal growth factor receptor (Homo sapiens), P00533 [L858R]; settings: Compound concentration 1000.0 nM
# [43] = molecular target: Insulin receptor-related protein (Homo sapiens) (UniProt P14616); settings: Compound concentration 1000.0 nM
# [44] = molecular target: Inhibitor of nuclear factor kappa-B kinase subunit alpha (Homo sapiens) (UniProt O15111); settings: Compound concentration 1000.0 nM
# Chain of Receptor tyrosine-protein kinase erbB-3 (Homo sapiens) (P21860 whole entry): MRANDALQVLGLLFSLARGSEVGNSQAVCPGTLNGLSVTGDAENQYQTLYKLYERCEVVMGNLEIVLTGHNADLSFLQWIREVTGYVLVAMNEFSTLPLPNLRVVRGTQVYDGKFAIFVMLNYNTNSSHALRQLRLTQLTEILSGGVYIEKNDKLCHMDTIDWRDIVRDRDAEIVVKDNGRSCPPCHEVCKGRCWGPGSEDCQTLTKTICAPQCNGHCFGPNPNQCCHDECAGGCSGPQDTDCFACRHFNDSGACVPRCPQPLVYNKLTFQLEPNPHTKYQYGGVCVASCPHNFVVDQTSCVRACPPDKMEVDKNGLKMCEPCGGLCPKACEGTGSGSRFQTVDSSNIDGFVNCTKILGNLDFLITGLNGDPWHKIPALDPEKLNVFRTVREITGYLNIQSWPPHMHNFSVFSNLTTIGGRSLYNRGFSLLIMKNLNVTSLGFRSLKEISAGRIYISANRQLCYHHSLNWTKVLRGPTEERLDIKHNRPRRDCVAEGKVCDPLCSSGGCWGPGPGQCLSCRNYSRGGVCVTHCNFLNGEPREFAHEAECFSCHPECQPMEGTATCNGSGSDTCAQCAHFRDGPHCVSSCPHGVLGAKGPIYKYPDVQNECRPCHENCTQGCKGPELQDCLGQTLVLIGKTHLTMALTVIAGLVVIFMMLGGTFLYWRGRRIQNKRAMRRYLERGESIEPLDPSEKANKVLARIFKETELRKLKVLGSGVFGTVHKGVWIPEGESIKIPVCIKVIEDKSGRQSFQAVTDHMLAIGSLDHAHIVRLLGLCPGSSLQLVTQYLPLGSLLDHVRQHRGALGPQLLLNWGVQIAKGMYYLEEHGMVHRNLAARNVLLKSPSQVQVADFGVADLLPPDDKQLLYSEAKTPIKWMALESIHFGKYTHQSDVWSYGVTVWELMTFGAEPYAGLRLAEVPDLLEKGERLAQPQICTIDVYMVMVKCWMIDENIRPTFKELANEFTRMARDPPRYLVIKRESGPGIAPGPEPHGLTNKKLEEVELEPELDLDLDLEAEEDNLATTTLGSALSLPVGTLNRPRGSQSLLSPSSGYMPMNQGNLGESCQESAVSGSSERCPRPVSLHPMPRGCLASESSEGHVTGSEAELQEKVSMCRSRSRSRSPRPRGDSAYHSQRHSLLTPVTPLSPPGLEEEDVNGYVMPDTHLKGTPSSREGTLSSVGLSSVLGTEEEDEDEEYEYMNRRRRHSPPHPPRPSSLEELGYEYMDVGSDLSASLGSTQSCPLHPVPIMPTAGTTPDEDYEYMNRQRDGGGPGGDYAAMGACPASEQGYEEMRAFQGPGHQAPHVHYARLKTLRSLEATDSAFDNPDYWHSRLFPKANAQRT
# Chain of Ephrin type-A receptor 4 (Homo sapiens) (P54764 whole entry): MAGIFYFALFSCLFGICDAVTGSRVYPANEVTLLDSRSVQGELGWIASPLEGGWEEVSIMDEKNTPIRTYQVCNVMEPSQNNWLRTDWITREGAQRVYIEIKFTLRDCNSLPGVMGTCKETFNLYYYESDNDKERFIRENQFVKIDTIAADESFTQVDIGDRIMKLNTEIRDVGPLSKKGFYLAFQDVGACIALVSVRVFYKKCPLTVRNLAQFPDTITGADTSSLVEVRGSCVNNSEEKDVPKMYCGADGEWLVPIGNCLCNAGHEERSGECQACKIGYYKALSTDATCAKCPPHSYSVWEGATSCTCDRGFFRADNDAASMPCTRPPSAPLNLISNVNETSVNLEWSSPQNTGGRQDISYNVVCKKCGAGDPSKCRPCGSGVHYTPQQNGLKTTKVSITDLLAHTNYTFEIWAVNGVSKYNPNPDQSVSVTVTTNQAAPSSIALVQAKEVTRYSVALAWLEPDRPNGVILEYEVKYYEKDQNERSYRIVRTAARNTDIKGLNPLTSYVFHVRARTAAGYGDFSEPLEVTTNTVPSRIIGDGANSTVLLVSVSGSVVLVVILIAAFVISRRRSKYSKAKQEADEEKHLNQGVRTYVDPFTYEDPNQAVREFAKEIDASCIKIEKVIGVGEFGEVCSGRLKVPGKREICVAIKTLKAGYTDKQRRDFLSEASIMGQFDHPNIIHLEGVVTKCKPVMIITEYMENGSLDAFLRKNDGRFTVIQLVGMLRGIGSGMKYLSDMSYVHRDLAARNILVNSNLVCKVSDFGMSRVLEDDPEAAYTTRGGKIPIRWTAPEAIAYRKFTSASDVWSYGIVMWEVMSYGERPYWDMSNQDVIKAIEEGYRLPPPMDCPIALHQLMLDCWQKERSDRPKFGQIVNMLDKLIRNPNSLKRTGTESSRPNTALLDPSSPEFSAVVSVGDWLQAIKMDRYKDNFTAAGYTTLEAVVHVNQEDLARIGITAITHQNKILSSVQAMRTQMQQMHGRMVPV
# Chain of Adenosine receptor A3 (Homo sapiens) (P0DMS8 whole entry): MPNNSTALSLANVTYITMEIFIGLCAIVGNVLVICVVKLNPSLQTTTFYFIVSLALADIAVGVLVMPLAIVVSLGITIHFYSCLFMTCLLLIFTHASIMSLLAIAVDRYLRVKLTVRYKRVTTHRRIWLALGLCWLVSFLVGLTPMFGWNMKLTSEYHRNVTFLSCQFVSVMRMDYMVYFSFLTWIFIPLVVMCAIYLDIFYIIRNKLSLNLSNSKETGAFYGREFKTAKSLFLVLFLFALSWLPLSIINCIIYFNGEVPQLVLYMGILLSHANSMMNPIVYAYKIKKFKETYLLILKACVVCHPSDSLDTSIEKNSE
# Chain of Casein kinase I isoform alpha-like (Homo sapiens) (Q8N752 whole entry, canonical isoform): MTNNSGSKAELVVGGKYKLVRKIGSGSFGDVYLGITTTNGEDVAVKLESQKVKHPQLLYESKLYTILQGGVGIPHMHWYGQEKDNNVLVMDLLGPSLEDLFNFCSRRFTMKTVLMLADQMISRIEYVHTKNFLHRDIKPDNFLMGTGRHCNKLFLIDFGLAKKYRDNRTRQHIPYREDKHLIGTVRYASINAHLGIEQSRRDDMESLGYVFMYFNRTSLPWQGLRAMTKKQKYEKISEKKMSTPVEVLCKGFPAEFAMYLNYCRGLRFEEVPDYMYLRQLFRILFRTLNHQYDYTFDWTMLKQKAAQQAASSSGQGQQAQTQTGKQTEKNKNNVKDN
# Chain of Insulin receptor-related protein (Homo sapiens) (P14616 27-742 limits assumed): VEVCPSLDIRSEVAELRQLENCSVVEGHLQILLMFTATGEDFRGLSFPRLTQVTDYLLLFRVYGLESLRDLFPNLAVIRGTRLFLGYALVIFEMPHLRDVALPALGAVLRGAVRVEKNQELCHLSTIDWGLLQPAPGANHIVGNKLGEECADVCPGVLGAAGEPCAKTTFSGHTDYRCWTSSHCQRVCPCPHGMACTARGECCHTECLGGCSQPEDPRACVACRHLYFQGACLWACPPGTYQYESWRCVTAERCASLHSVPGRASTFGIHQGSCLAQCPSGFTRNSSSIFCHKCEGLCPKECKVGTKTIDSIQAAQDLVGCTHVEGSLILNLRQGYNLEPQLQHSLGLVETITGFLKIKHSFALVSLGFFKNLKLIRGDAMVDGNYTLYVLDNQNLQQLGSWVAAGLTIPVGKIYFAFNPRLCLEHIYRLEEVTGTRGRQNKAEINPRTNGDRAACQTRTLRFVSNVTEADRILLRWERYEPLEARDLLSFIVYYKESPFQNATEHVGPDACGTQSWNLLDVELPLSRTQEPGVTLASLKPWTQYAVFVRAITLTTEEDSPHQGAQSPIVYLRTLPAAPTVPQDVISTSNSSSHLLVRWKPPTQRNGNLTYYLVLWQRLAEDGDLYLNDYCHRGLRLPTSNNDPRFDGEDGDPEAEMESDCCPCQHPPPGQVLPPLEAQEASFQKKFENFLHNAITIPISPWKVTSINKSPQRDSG
# Chain of Insulin receptor-related protein (Homo sapiens) (P14616 747-1297 limits assumed): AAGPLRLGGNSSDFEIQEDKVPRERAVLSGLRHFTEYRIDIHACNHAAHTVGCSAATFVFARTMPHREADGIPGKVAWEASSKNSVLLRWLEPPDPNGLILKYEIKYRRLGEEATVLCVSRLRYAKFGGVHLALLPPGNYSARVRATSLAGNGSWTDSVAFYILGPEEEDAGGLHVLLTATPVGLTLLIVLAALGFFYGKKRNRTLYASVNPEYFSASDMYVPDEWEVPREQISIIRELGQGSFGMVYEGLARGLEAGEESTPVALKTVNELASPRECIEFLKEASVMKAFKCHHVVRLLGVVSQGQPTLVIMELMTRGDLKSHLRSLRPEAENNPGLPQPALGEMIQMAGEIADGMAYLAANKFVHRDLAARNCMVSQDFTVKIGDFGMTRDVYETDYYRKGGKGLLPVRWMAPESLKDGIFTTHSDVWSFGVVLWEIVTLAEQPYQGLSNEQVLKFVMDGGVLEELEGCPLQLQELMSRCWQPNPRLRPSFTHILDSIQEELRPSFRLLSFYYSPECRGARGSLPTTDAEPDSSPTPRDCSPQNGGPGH
# Chain of Phosphatidylinositol 5-phosphate 4-kinase type-2 beta (Homo sapiens) (P78356 whole entry): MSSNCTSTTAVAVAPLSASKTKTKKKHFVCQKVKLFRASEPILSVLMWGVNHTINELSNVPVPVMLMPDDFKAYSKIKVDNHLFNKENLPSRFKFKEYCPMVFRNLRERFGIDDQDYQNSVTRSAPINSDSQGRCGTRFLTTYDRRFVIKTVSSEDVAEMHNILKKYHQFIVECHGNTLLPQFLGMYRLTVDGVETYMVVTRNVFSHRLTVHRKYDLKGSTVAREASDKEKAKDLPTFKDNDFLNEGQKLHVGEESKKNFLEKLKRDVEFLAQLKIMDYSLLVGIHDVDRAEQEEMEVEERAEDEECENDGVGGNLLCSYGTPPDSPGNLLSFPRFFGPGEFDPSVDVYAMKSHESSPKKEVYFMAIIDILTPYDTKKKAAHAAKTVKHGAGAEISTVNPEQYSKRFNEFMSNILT
# Chain of Sigma non-opioid intracellular receptor 1 (Homo sapiens) (Q99720 whole entry): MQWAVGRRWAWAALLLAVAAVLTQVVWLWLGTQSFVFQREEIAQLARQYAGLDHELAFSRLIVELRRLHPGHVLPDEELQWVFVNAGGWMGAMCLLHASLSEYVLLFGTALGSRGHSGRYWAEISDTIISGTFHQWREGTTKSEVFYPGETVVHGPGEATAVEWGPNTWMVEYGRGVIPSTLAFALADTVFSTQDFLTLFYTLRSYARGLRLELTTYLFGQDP
structure (smiles),measurement,setting,value
CCCOc1ccc([C@@H]2[C@@H](C(=O)O)[C@H](c3ccc4c(c3)OCO4)CN2CC(=O)Nc2c(CC)cccc2CC)cc1 [A-1806262],residual activity,[1],84%
same,residual activity,[2],82%
same,residual activity,[3],94%
same,residual activity,[4],100%
same,residual activity,[5],100%
same,residual activity,[6],93%
same,residual activity,[7],100%
same,residual activity,[8],92%
same,residual activity,[9],72%
same,residual activity,[10],89%
same,residual activity,[11],100%
same,residual activity,[12],64%
same,residual activity,[13],90%
same,% Inhibition of Control Specific Binding (Mean n=2),[14],-11.6%
same,residual activity,[15],93%
same,residual activity,[16],100%
same,residual activity,[17],97%
same,residual activity,[18],100%
same,residual activity,[19],100%
same,% Inhibition of Control Specific Binding (Mean n=2),[20],4.4%
same,residual activity,[21],94%
same,residual activity,[22],93%
same,residual activity,[23],87%
same,residual activity,[24],100%
same,residual activity,[25],89%
same,residual activity,[26],84%
same,residual activity,[27],80%
same,residual activity,[28],86%
same,residual activity,[29],100%
same,residual activity,[30],80%
same,residual activity,[31],82%
same,residual activity,[32],97%
same,residual activity,[33],100%
same,% Inhibition of Control Specific Binding (Mean n=2),[34],-12.9%
same,% Inhibition of Control Specific Binding (Mean n=2),[35],37.6%
same,residual activity,[36],100%
same,residual activity,[37],97%
same,% Inhibition of Control Specific Binding (Mean n=2),[38],-9.7%
same,residual activity,[39],100%
same,residual activity,[40],94%
same,residual activity,[41],75%
same,residual activity,[42],87%
same,residual activity,[43],100%
same,residual activity,[44],86%
CCCOc1ccc([C@H]2[C@H](C(=O)O)[C@@H](c3ccc4c(c3)OCO4)CN2CC(=O)Nc2c(CC)cccc2CC)cc1 [A-192621],residual activity,[1],91%
same,residual activity,[2],73%
same,residual activity,[3],90%
same,residual activity,[4],100%
same,residual activity,[5],100%
same,residual activity,[6],93%
same,residual activity,[7],100%
same,residual activity,[8],92%
same,residual activity,[9],77%
same,residual activity,[10],90%
same,residual activity,[11],96%
same,residual activity,[12],88%
same,residual activity,[13],98%
same,% Inhibition of Control Specific Binding (Mean n=2),[14],-11.6%
same,residual activity,[15],97%
same,residual activity,[16],92%
same,residual activity,[17],90%
same,residual activity,[18],100%
same,residual activity,[19],95%
same,% Inhibition of Control Specific Binding (Mean n=2),[20],-17.9%
same,residual activity,[21],92%
same,residual activity,[22],100%
same,residual activity,[23],86%
same,residual activity,[24],95%
same,residual activity,[25],91%
same,residual activity,[26],78%
same,residual activity,[27],97%
same,residual activity,[28],84%
same,residual activity,[29],100%
same,residual activity,[30],75%
same,residual activity,[31],70%
same,residual activity,[32],90%
same,residual activity,[33],84%
same,% Inhibition of Control Specific Binding (Mean n=2),[34],-35.5%
same,% Inhibition of Control Specific Binding (Mean n=2),[35],47.4%
same,residual activity,[36],100%
same,residual activity,[37],84%
same,% Inhibition of Control Specific Binding (Mean n=2),[38],39.3%
same,residual activity,[39],85%
same,residual activity,[40],100%
same,residual activity,[41],97%
same,residual activity,[42],100%
same,residual activity,[43],94%
same,residual activity,[44],77%
